In brackets after ≈: the same amount, converted by molar mass. Where two headings read alike, the source gives them in different places.
How the values were obtained:
[1] = system: Saccharomyces cerevisiae OKI.1282; assay: minimal inhibitory concentration in Sabouraud medium; type: cell-based; conditions: for MIC: Saccharomyces cerevisiae
Source text: Saccharomyces cerevisiae OKI.1282
(§1) As a medium Saboroud medium was employed.

Candida albicans CBS.562 = assay: as above; type: cell-based; conditions: for MIC: Candida albicans
Source text: Candida albicans CBS.562 "2"
as §1

[2] = system: Candida tropicalis CBS.433; assay: as above; type: cell-based; conditions: for MIC: Candida tropicalis
Source text: Candida tropicalis CBS.433 "3"
as §1

[3] = system: Aspergillus niger CBS.12648; assay: as above; type: cell-based; conditions: Aspergillus niger
Source text: Aspergillus niger CBS.12648
as §1

[4] = system: Aspergillus fumigatus CBS.11326; assay: as above; type: cell-based; conditions: for MIC: Aspergillus fumigatus
Source text: Aspergillus fumigatus CBS.11326
as §1

[5] = system: Aspergillus flavus CBS.24765; assay: as above; type: cell-based; conditions: for MIC: Aspergillus flavus
Source text: Aspergillus flavus CBS.24765
as §1

[6] = system: Penicillium digitatum CBS.31948; assay: as above; type: cell-based; conditions: for MIC: Penicillium digitatum
Source text: Penicillium digitatum CBS.31948
as §1

[7] = system: Penicillium digitatum CCM.F-382; assay: as above; type: cell-based; conditions: for MIC: Penicillium digitatum
Source text: Penicillium digitatum CCM.F-382
as §1

[8] = system: Penicillium chrysogenium CBS.19646; assay: as above; type: cell-based; conditions: for MIC: Penicillium
Source text: Penicillium chrysogenium CBS.19646
as §1

[9] = system: Penicillium chrysogenium CCM.F-362; assay: as above; type: cell-based; conditions: for MIC: Penicillium
Source text: Penicillium chrysogenium CCM.F-362
as §1

[10] = system: Microsporum gypseum ver. vinosum CBS.10064; assay: as above; type: cell-based; conditions: Nannizzia gypsea, 72 h
Source text: Microsporum gypseum ver. vinosum CBS.10064
as §1

[11] = system: Sporotrichum schenkii CBS.34035; assay: as above; type: cell-based; conditions: 288 hours
Source text: Sporotrichum schenkii CBS.34035
as §1

[12] = system: Trichophyton rubrum CBS.30338; assay: as above; type: cell-based; conditions: Trichophyton rubrum
Source text: Trichophyton rubrum CBS.30338
as §1

[13] = system: Trichophyton mentagrophytes CBS.50148; assay: as above; type: cell-based; conditions: for MIC: Trichophyton mentagrophytes
Source text: Trichophyton mentagrophytes CBS.50148
as §1

[14] = system: Epidermophyton floccosum OKI/IV.; assay: as above; type: cell-based; conditions: for MIC: Epidermophyton floccosum
Source text: Epidermophyton floccosum OKI/IV.
as §1

[15] = system: Fusarium graminocorum DSM.11802; assay: as above; type: cell-based
Source text: Fusarium graminocorum DSM.11802
as §1

[16] = system: Fusarium oxysporum DSM.10975; assay: as above; type: cell-based
Source text: Fusarium oxysporum DSM.10975
as §1

[17] = system: Fusarium monoliforme DSM.11778; assay: as above; type: cell-based; conditions: for MIC: Fusarium
Source text: Fusarium monoliforme DSM.11778
as §1

[18] = system: Fusarium culmorum DSM.11425; assay: as above; type: cell-based
Source text: Fusarium culmorum DSM.11425
as §1

[19] = system: Aspergillus niger CCM.F-330; assay: as above; type: cell-based; conditions: for MIC: Aspergillus niger
Source text: Aspergillus niger CCM.F-330
as §1

Botrytis cinerea = assay: activity against phytopathogenic fungi; type: cell-based
Ascochyta pisi = assay: activity against phytopathogenic fungi; type: cell-based
Cercospora beticola = assay: activity against phytopathogenic fungi; type: cell-based
Taphrina deformans = assay: activity against phytopathogenic fungi; type: cell-based
Phytophtora infestans = type: cell-based
Sclerotinia sclerotiorum = assay: activity against phytopathogenic fungi; type: cell-based
Verticillium albo-atrum = assay: activity against phytopathogenic fungi; type: cell-based
Verticillium dahlise = assay: activity against phytopathogenic fungi; type: cell-based
Venturia = assay: activity against phytopathogenic fungi; type: cell-based
Candida krusei 79/K47 = assay: minimal inhibitory concentration in Sabouraud medium; conditions: Pichia kudriavzevii, read-out: minimal inhibitory concentration
Description: (§2) Sabouraud medium was inoculated with 10^5 /ml. germ number and the propagation of the fungi was examined after 24, 48, 72, 144 and 288 hours incubation time and the minimal inhibitory concentrations were determined.

[20] = system: Cryptococcus neoform. 78/K16; assay: as above; conditions: read-out: minimal inhibitory concentration
Description: as §2

O=C1CC(S(=O)(=O)C2CCCCC2)C(=O)N1c1ccccc1 (stereo not shown) [1-Phenyl-3-cyclohexyl-sulfonyl-pyrrolidine-2,5-dione]
minimal inhibitory concentration ([1]; 24 hours): 75 µg/mL (≈ 233 µM)
minimal inhibitory concentration ([1]; 48 hours): 75 µg/mL (≈ 233 µM)
MIC ([1]; OKI.1282, 24 h, 24 hours): 50 µg/mL (≈ 156 µM)
MIC ([1]; OKI.1282, 48 h, 48 hours): 50 µg/mL (≈ 156 µM)
minimal inhibitory concentration (Candida albicans CBS.562; 24 hours): 50 µg/mL (≈ 156 µM)
minimal inhibitory concentration (Candida albicans CBS.562; 48 hours): 50 µg/mL (≈ 156 µM)
MIC (Candida albicans CBS.562; CBS.562, 24 h, 24 hours): 75 µg/mL (≈ 233 µM)
MIC (Candida albicans CBS.562; CBS.562, 48 h, 48 hours): 100 µg/mL (≈ 311 µM)
minimal inhibitory concentration ([2]; 24 hours): 75 µg/mL (≈ 233 µM)
minimal inhibitory concentration ([2]; 48 hours): 75 µg/mL (≈ 233 µM)
MIC ([2]; CBS.433, 24 h, 24 hours): 150 µg/mL (≈ 467 µM)
MIC ([2]; CBS.433, 48 h, 48 hours): 150 µg/mL (≈ 467 µM)
MIC ([3]; CBS.12648, 72 h, 72 hours): 75 µg/mL (≈ 233 µM)
MIC ([3]; CBS.12648, 144 h, 144 hours): 150 µg/mL (≈ 467 µM)
MIC ([3]; CBS.12648, 288 h, 288 hours): 150 µg/mL (≈ 467 µM)
minimal inhibitory concentration ([4]; 288 hours): 200 µg/mL (≈ 622 µM)
MIC ([4]; CBS.11326, 72 h, 72 hours): 50 µg/mL (≈ 156 µM)
MIC ([4]; CBS.11326, 144 h, 144 hours): 150 µg/mL (≈ 467 µM)
MIC ([4]; CBS.11326, 288 h, 288 hours): 150 µg/mL (≈ 467 µM)
minimal inhibitory concentration ([5]; 72 hours): 75 µg/mL (≈ 233 µM)
minimal inhibitory concentration ([5]; 144 hours): 150 µg/mL (≈ 467 µM)
minimal inhibitory concentration ([5]; 288 hours): 200 µg/mL (≈ 622 µM)
MIC ([5]; CBS.24765, 72 h, 72 hours): 100 µg/mL (≈ 311 µM)
MIC ([5]; CBS.24765, 144 h, 144 hours): 200 µg/mL (≈ 622 µM)
MIC ([5]; CBS.24765, 288 h, 288 hours): 250 µg/mL (≈ 778 µM)
minimal inhibitory concentration ([6]; 288 hours): 50 µg/mL (≈ 156 µM)
MIC ([6]; CBS.31948, 72 h, 72 hours): 10 µg/mL (≈ 31.1 µM)
MIC ([6]; CBS.31948, 144 h, 144 hours): 25 µg/mL (≈ 77.8 µM)
MIC ([6]; CBS.31948, 288 h, 288 hours): 25 µg/mL (≈ 77.8 µM)
minimal inhibitory concentration ([7]; 288 hours): 50 µg/mL (≈ 156 µM)
MIC ([7]; CCM.F382, 144 h, 144 hours): 50 µg/mL (≈ 156 µM)
MIC ([7]; CCM.F382, 288 h, 288 hours): 75 µg/mL (≈ 233 µM)
minimal inhibitory concentration ([8]; 288 hours): 150 µg/mL (≈ 467 µM)
MIC ([8]; CBS.19646, 72 h, 72 hours): 50 µg/mL (≈ 156 µM)
MIC ([8]; CBS.19646, 144 h, 144 hours): 75 µg/mL (≈ 233 µM)
MIC ([8]; CBS.19646, 288 h, 288 hours): 75 µg/mL (≈ 233 µM)
minimal inhibitory concentration ([9]; 144 hours): 150 µg/mL (≈ 467 µM)
MIC ([9]; CCM.F362, 72 h, 72 hours): 75 µg/mL (≈ 233 µM)
MIC ([9]; CCM.F362, 144 h, 144 hours): 200 µg/mL (≈ 622 µM)
MIC ([9]; CCM.F362, 288 h, 288 hours): 200 µg/mL (≈ 622 µM)
MIC [10]: 10 µg/mL (≈ 31.1 µM)
minimal inhibitory concentration [11]: 100 µg/mL (≈ 311 µM)
MIC ([11]; Sporotrichum, CBS.34035, 288 h): 50 µg/mL (≈ 156 µM)
MIC ([12]; CBS.30338, 72 h, 72 hours): 2.5 µg/mL (≈ 7.78 µM)
MIC ([12]; CBS.30338, 144 h, 144 hours): 10 µg/mL (≈ 31.1 µM)
MIC ([12]; CBS.30338, 288 h, 288 hours): 10 µg/mL (≈ 31.1 µM)
minimal inhibitory concentration ([13]; 72 hours): 2.5 µg/mL (≈ 7.78 µM)
MIC ([13]; CBS.50148, 72 h, 72 hours, read-out: minimal inhibitory concentration): 5 µg/mL (≈ 15.6 µM)
MIC ([13]; CBS.50148, 144 h, 144 hours, read-out: minimal inhibitory concentration): 10 µg/mL (≈ 31.1 µM)
MIC ([13]; CBS.50148, read-out: Minimal inhibitory concentration inhibiting the growth): 2.5 µg/mL (≈ 7.78 µM)
minimal inhibitory concentration ([14]; 144 hours): 2.5 µg/mL (≈ 7.78 µM)
minimal inhibitory concentration ([14]; 288 hours): 10 µg/mL (≈ 31.1 µM)
MIC ([14]; 144 h, read-out: minimal inhibitory concentration): 5 µg/mL (≈ 15.6 µM)
MIC ([14]; 288 h, read-out: minimal inhibitory concentration): 5 µg/mL (≈ 15.6 µM)
MIC ([14]; read-out: Minimal inhibitory concentration inhibiting the growth): 1 µg/mL (≈ 3.11 µM)
MIC ([15]; 72 hours): 50 µg/mL (≈ 156 µM)
MIC ([15]; 144 hours): 100 µg/mL (≈ 311 µM)
MIC ([15]; 288 hours): 100 µg/mL (≈ 311 µM)
MIC ([16]; 72 hours): 50 µg/mL (≈ 156 µM)
MIC ([16]; 144 hours): 75 µg/mL (≈ 233 µM)
MIC ([16]; 288 hours): 75 µg/mL (≈ 233 µM)
minimal inhibitory concentration ([17]; 72 hours): 75 µg/mL (≈ 233 µM)
minimal inhibitory concentration ([17]; 288 hours): 200 µg/mL (≈ 622 µM)
MIC ([17]; DSM.11778, 72 h, 72 hours): 100 µg/mL (≈ 311 µM)
MIC ([17]; DSM.11778, 144 h, 144 hours): 150 µg/mL (≈ 467 µM)
MIC ([17]; DSM.11778, 288 h, 288 hours): 150 µg/mL (≈ 467 µM)
MIC ([18]; 72 hours): 50 µg/mL (≈ 156 µM)
MIC ([18]; 144 hours): 50 µg/mL (≈ 156 µM)
MIC ([18]; 288 hours): 100 µg/mL (≈ 311 µM)
minimal inhibitory concentration ([19]; 72 hours): 75 µg/mL (≈ 233 µM)
minimal inhibitory concentration ([19]; 144 hours): 150 µg/mL (≈ 467 µM)
minimal inhibitory concentration ([19]; 288 hours): 150 µg/mL (≈ 467 µM)
MIC ([19]; CCM.F330, 72 h, 72 hours): 150 µg/mL (≈ 467 µM)
MIC ([19]; CCM.F330, 144 h, 144 hours): 200 µg/mL (≈ 622 µM)
MIC ([19]; CCM.F330, 288 h, 288 hours): 250 µg/mL (≈ 778 µM)
activity against Botrytis cinerea (Botrytis cinerea): active
activity against Ascochyta pisi (Ascochyta pisi): active
activity against Cercospora beticola (Cercospora beticola): active
activity against Taphrina deformans (Taphrina deformans): active
activity against Phytophtora infestans (Phytophtora infestans): active
activity against Sclerotinia sclerotiorum (Sclerotinia sclerotiorum): active
activity against Verticillium albo-atrum (Verticillium albo-atrum): active
activity against Verticillium dahlise (Verticillium dahlise): active
activity against Venturia (Venturia): active
MIC (Candida krusei 79/K47; 79/K47, 24 h): 10 µg/mL (≈ 31.1 µM)
MIC (Candida krusei 79/K47; 79/K47, 48 h): 10 µg/mL (≈ 31.1 µM)
MIC ([20]; 24 h): 25 µg/mL (≈ 77.8 µM)
MIC ([20]; 48 h): 25 µg/mL (≈ 77.8 µM)
